{
  "source": "patent US10208033B2",
  "about": "“β-carboline, dihydro-β-carboline and tetrahydro-β-carboline alkaloid derivatives and preparation methods same and use in aspects of preventing and treating plant viruses, fungicides and insecticides” (NANKAI UNIVERSITY, priority 2013, dated 2019)",
  "key": {"Rhizoctonia solani": {"tested_on": "Rhizoctonia solani", "experiment": "Fungicidal (bactericidal) activity in vitro, PDA colony diameter", "type": "cell-based", "details": "50 mg/kg"}, "Fusarium fujikuroi": {"tested_on": "Fusarium fujikuroi", "experiment": "Fungicidal (bactericidal) activity in vitro, PDA colony diameter", "type": "cell-based", "details": "50 mg/kg"}, "[1]": {"tested_on": "tobacco mosaic virus (TMV)", "experiment": "Anti-TMV in vivo protective effect", "parameters": "species or system tobacco mosaic virus (host Nicotiana tabacum L.cv.Xanthi NN)"}, "[2]": {"tested_on": "tobacco mosaic virus (TMV)", "experiment": "Anti-TMV in vivo therapeutic effect", "parameters": "species or system tobacco mosaic virus (host Nicotiana tabacum L.cv.Xanthi NN)"}, "cotton bollworms": {"tested_on": "cotton bollworms", "experiment": "whole plant or invertebrate", "method": "Experimental method of cotton bollworms: feed and drug mixing method: measure 3 mL of prepared solution and add it to about 27 g of newly prepared feed, thereby obtaining needed concentration through dilution by 10 times."}, "corn borers [3]": {"tested_on": "corn borers", "details": "concentration 600 mg/kg"}, "Cercospora arachidicola": {"tested_on": "Cercospora arachidicola", "experiment": "Fungicidal (bactericidal) activity in vitro, PDA colony diameter", "type": "cell-based", "details": "50 mg/kg"}, "Fusarium graminearumt": {"tested_on": "Fusarium graminearumt", "experiment": "microbe, parasite or virus in culture", "type": "cell-based"}, "[4]": {"tested_on": "tobacco mosaic virus (TMV)", "experiment": "Anti-TMV in vivo inactivation", "parameters": "species or system tobacco mosaic virus (host Nicotiana tabacum L.cv.Xanthi NN)"}, "[5]": {"tested_on": "Colletotrichum orbiculare", "experiment": "Fungicidal (bactericidal) activity in vitro, PDA colony diameter", "type": "cell-based", "details": "50 mg/kg"}, "Alternaria solani": {"tested_on": "Alternaria solani", "experiment": "Fungicidal (bactericidal) activity in vitro, PDA colony diameter", "type": "cell-based", "details": "50 mg/kg"}, "Rhizoctonia cereali": {"tested_on": "Rhizoctonia cereali", "experiment": "Fungicidal (bactericidal) activity in vitro, PDA colony diameter", "type": "cell-based", "details": "50 mg/kg"}, "Macrophoma kawatsukai": {"tested_on": "Macrophoma kawatsukai", "experiment": "Fungicidal (bactericidal) activity in vitro, PDA colony diameter", "type": "cell-based", "details": "50 mg/kg"}, "mosquito larvae": {"tested_on": "mosquito larvae", "experiment": "whole plant or invertebrate", "details": "24 h", "method_in_brief": "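Early fourth-instar Culex pipiens pallens larvae from an indoor colony, 10 per beaker, exposed to test compound at 5 ppm in water, diluted from a 1000 ppm acetone mother solution. Blank: water containing 0.5 mL test solvent.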"}, "[6]": {"tested_on": "tobacco mosaic virus (TMV)", "experiment": "Anti-TMV in vitro effect (half-leaf soaking)", "type": "cell-based, tobacco mosaic virus (host Nicotiana tabacum L.cv.Xanthi NN)"}, "potato late blight": {"tested_on": "potato late blight", "experiment": "microbe, parasite or virus in culture", "type": "cell-based"}, "Bipolaria maydis": {"tested_on": "Bipolaria maydis", "experiment": "organism not typed", "type": "cell-based"}, "Sclerotinia scleotiorum": {"tested_on": "Sclerotinia scleotiorum", "experiment": "Fungicidal (bactericidal) activity in vitro, PDA colony diameter", "type": "cell-based", "details": "50 mg/kg"}, "Phytophthora capsici": {"tested_on": "Phytophthora capsici", "experiment": "Fungicidal (bactericidal) activity in vitro, PDA colony diameter", "type": "cell-based", "details": "50 mg/kg"}, "cucumber fusarium wilt": {"tested_on": "cucumber fusarium wilt", "experiment": "Fungicidal (bactericidal) activity in vitro, PDA colony diameter", "type": "cell-based", "details": "50 mg/kg"}, "Botrytis cinerea": {"tested_on": "Botrytis cinerea", "experiment": "Fungicidal (bactericidal) activity in vitro, PDA colony diameter", "type": "cell-based", "details": "50 mg/kg"}, "armyworms": {"tested_on": "armyworms", "type": "in vivo", "details": "concentration 600 mg/kg"}, "[7]": {"tested_on": "tobacco mosaic virus (TMV)", "experiment": "Anti-TMV activity, overall statements on Table 1", "type": "in vivo, tobacco mosaic virus (host Nicotiana tabacum L.cv.Xanthi NN)", "details": "100 μg/mL versus ningnanmycin at 100 μg/mL"}, "corn borers [8]": {"tested_on": "corn borers", "experiment": "whole plant or invertebrate", "details": "read-out: Corn borer Mortality (%)"}},
  "note": "Where a name gives a salt, the structure may show the parent alone.",
  "data": [
    {"compound": "CC(=NNC(=O)[C@@H]1Cc2c([nH]c3ccccc23)[C@H](C)N1)C(C)(C)C", "note": "[Ic-28, (1S, 3S)—N′-(3,3-dimethyl-2-butylidene)-1-methyl-2,3,4,9-tetrahydropyridino [3,4-b] indol-3-formylhydrazine]", "values": [
      {"measurement": "Bactericidal activity (%) Rhizoctonia solani", "setting": "Rhizoctonia solani", "result": 8.3, "unit": "%"},
      {"measurement": "Bactericidal activity (%) Fusarium fujikuroi", "setting": "Fusarium fujikuroi", "result": 23.5, "unit": "%"},
      {"measurement": "Relative inhibition rate (%) In vivo protection", "setting": "[1]; treatment dose 100 μg/mL", "result": 18.9, "unit": "%"},
      {"measurement": "Relative inhibition rate (%) In vivo protection", "setting": "[1]; treatment dose 500 μg/mL", "result": 56.8, "unit": "%"},
      {"measurement": "Relative inhibition rate (%) In vivo therapy", "setting": "[2]; treatment dose 100 μg/mL", "result": 16.7, "unit": "%"},
      {"measurement": "Relative inhibition rate (%) In vivo therapy", "setting": "[2]; treatment dose 500 μg/mL", "result": 55.4, "unit": "%"},
      {"measurement": "Cotton bollworm Mortality (%)", "setting": "cotton bollworms; concentration 600 mg/kg", "result": 45, "unit": "%"},
      {"measurement": "Corn borer Mortality (%)", "setting": "corn borers [3]", "result": 40, "unit": "%"},
      {"measurement": "Bactericidal activity (%) Cercospora arachidicola", "setting": "Cercospora arachidicola", "result": 36.4, "unit": "%"},
      {"measurement": "Bactericidal activity (%) Fusarium graminearumt", "setting": "Fusarium graminearumt; 50 mg/kg", "result": 53.8, "unit": "%"},
      {"measurement": "Relative inhibition rate (%) In vivo inactivation", "setting": "[4]; treatment dose 100 μg/mL", "result": 21.3, "unit": "%"},
      {"measurement": "Relative inhibition rate (%) In vivo inactivation", "setting": "[4]; treatment dose 500 μg/mL", "result": 59.7, "unit": "%"},
      {"measurement": "Bactericidal activity (%) Colletotrichum orbiculare", "setting": "[5]", "result": 32.0, "unit": "%"},
      {"measurement": "Bactericidal activity (%) Alternaria solani", "setting": "Alternaria solani", "result": 14.3, "unit": "%"},
      {"measurement": "Bactericidal activity (%) Rhizoctonia cereali", "setting": "Rhizoctonia cereali", "result": 48.6, "unit": "%"},
      {"measurement": "Bactericidal activity (%) Macrophoma kawatsukai", "setting": "Macrophoma kawatsukai", "result": 36.4, "unit": "%"},
      {"measurement": "Mosquito larvae Mortality (%)", "setting": "mosquito larvae; concentration 5 mg/kg", "result": 20, "unit": "%"},
      {"measurement": "Mosquito larvae Mortality (%)", "setting": "mosquito larvae; concentration 10 mg/kg", "result": 100, "unit": "%"},
      {"measurement": "Relative inhibition rate (%) In vitro activity", "setting": "[6]; treatment dose 100 μg/mL", "result": 25.6, "unit": "%"},
      {"measurement": "Relative inhibition rate (%) In vitro activity", "setting": "[6]; treatment dose 500 μg/mL", "result": 58.1, "unit": "%"},
      {"measurement": "Bactericidal activity (%) potato late blight", "setting": "potato late blight", "result": 30.4, "unit": "%"},
      {"measurement": "Bactericidal activity (%) Bipolaria maydis", "setting": "Bipolaria maydis; 50 mg/kg", "result": 28.0, "unit": "%"},
      {"measurement": "Bactericidal activity (%) Sclerotinia scleotiorum", "setting": "Sclerotinia scleotiorum", "result": 3.8, "unit": "%"},
      {"measurement": "Bactericidal activity (%) Phytophthora capsici", "setting": "Phytophthora capsici", "result": 18.2, "unit": "%"},
      {"measurement": "Bactericidal activity (%) Cucumber fusarium wilt", "setting": "cucumber fusarium wilt", "result": 4.5, "unit": "%"},
      {"measurement": "Bactericidal activity (%) Botrytis cinerea", "setting": "Botrytis cinerea", "result": 41.7, "unit": "%"},
      {"measurement": "Armyworm Mortality (%)", "setting": "armyworms", "result": 45, "unit": "%"},
      {"measurement": "anti-TMV activity compared with ningnanmycin", "setting": "[7]", "result": "equivalent to the activity of commercial variety ningnanmycin"}
    ]},
    {"compound": "Cc1nccc2c1[nH]c1cc(OC(=O)NC(C)C)ccc12", "note": "[Ia-5, isopropylamino formate (1-methylpyridino [3,4-b]indol-7)-ester]", "values": [
      {"measurement": "inhibition of growth at 50 mg/kg", "setting": "Rhizoctonia solani; Rhizoctonia solani, 96 h", "result": 6.6, "unit": "%"},
      {"measurement": "inhibition of growth at 50 mg/kg", "setting": "Fusarium fujikuroi; Fusarium fujikuroi, 96 h", "result": 14.3, "unit": "%"},
      {"measurement": "inhibition at 100 µg/mL", "setting": "[1]; Tobacco mosaic virus, treatment dose 100 μg/mL, read-out: Relative inhibition rate (%) In vivo protection", "result": 5.8, "unit": "%"},
      {"measurement": "inhibition at 500 µg/mL", "setting": "[1]; Tobacco mosaic virus, treatment dose 500 μg/mL, read-out: Relative inhibition rate (%) In vivo protection", "result": 40.3, "unit": "%"},
      {"measurement": "inhibition at 100 µg/mL", "setting": "[2]; Tobacco mosaic virus, treatment dose 100 μg/mL, read-out: Relative inhibition rate (%) In vivo therapy", "result": 0, "unit": "%"},
      {"measurement": "inhibition at 500 µg/mL", "setting": "[2]; Tobacco mosaic virus, treatment dose 500 μg/mL, read-out: Relative inhibition rate (%) In vivo therapy", "result": 32.7, "unit": "%"},
      {"measurement": "mortality at 600 mg/kg", "setting": "cotton bollworms; Helicoverpa armigera, in Gossypium hirsutum, read-out: Cotton bollworm Mortality (%)", "result": 15, "unit": "%"},
      {"measurement": "inhibition of growth at 50 mg/kg", "setting": "Cercospora arachidicola; Mycosphaerella arachidis, 96 h", "result": 53.9, "unit": "%"},
      {"measurement": "inhibition of growth at 50 mg/kg", "setting": "Fusarium graminearumt; Fusarium, 96 h, read-out: Bactericidal activity (%) Fusarium graminearumt", "result": 23.8, "unit": "%"},
      {"measurement": "inhibition at 100 µg/mL", "setting": "[4]; Tobacco mosaic virus, treatment dose 100 μg/mL, read-out: Relative inhibition rate (%) In vivo inactivation", "result": 0, "unit": "%"},
      {"measurement": "inhibition at 500 µg/mL", "setting": "[4]; Tobacco mosaic virus, treatment dose 500 μg/mL, read-out: Relative inhibition rate (%) In vivo inactivation", "result": 29.5, "unit": "%"},
      {"measurement": "mortality at 600 mg/kg", "setting": "corn borers [8]", "result": 10, "unit": "%"},
      {"measurement": "inhibition of growth at 50 mg/kg", "setting": "[5]; Colletotrichum orbiculare, 96 h", "result": 39.3, "unit": "%"},
      {"measurement": "inhibition of growth at 50 mg/kg", "setting": "Alternaria solani; Alternaria solani, 96 h", "result": 21.1, "unit": "%"},
      {"measurement": "inhibition of growth at 50 mg/kg", "setting": "Rhizoctonia cereali; Rhizoctonia, 96 h", "result": 36.8, "unit": "%"},
      {"measurement": "inhibition at 50 mg/kg", "setting": "Macrophoma kawatsukai", "result": 2.4, "unit": "%"},
      {"measurement": "mortality at 10 mg/kg", "setting": "mosquito larvae; Culex pipiens, read-out: Mosquito larvae Mortality (%)", "result": 30, "unit": "%"},
      {"measurement": "inhibition at 100 µg/mL", "setting": "[6]; Tobacco mosaic virus, treatment dose 100 μg/mL, read-out: Relative inhibition rate (%) In vitro activity", "result": 0, "unit": "%"},
      {"measurement": "inhibition at 500 µg/mL", "setting": "[6]; Tobacco mosaic virus, treatment dose 500 μg/mL, read-out: Relative inhibition rate (%) In vitro activity", "result": 31.3, "unit": "%"},
      {"measurement": "inhibition of growth at 50 mg/kg", "setting": "potato late blight; Phytophthora infestans, 96 h, read-out: Bactericidal activity (%) potato late blight", "result": 18.2, "unit": "%"},
      {"measurement": "inhibition at 50 mg/kg", "setting": "Bipolaria maydis; read-out: Bactericidal activity (%) Bipolaria maydis", "result": 22.7, "unit": "%"},
      {"measurement": "inhibition of growth at 50 mg/kg", "setting": "Sclerotinia scleotiorum; Sclerotinia, 96 h", "result": 9.8, "unit": "%"},
      {"measurement": "inhibition of growth at 50 mg/kg", "setting": "Phytophthora capsici; Phytophthora capsici, 96 h", "result": 25, "unit": "%"},
      {"measurement": "inhibition of growth at 50 mg/kg", "setting": "cucumber fusarium wilt; Fusarium, 96 h", "result": 34.6, "unit": "%"},
      {"measurement": "inhibition of growth at 50 mg/kg", "setting": "Botrytis cinerea; Botrytis cinerea, 96 h", "result": 0, "unit": "%"},
      {"measurement": "Armyworm Mortality (%)", "setting": "armyworms", "result": 10, "unit": "%"}
    ]}
  ]
}
